Laboratory results reported in patent US20180111893A1, “POLYCATIONIC AMPHIPHILES AND POLYMERS THEREOF AS ANTIMICROBIAL AGENTS AND METHODS USING SAME” (Temple University-Of The Commonwealth System of Higher …, priority 2015, published 2018).

Key:
[1] = system: Pseudomonas aeruginosa; design: MIC against Pseudomonas aeruginosa: unit not given here; conditions: cited from earlier work
[2] = system: Pseudomonas aeruginosa (PAO1); test: Minimum inhibitory concentration (MIC); format: cell-based; conditions: for MIC v PA: Table 1
Method: (§1) As used herein, the term “minimum inhibitory concentration (MIC)” refers to the lowest concentration of an antimicrobial agent that will inhibit the visible growth of a microorganism after overnight incubation. MIC values against bacteria, for example, the Gram-positive Staphylococcus aureus and Enterococcus faecalis and the Gram-negative Escherichia coli and Pseudomonas aeruginosa were determined by standard methods. See also P. A. Wayne, Methods for Dilution Antimicrobial Tests for Bacteria that Grow Aerobically; Approved Standard, Ninth Edition, 2012, CLSI Document M07-A9, Vol. 32 No. 2, which is incorporated by reference herein in its entirety.
(§2) Compounds were serially diluted two-fold from a 10% DMSO/aqueous stock solution to yield twelve test concentrations. Overnight S. aureus, E. faecalis, E. coli, P. aeruginosa, CA-MRSA, and HA-MRSA cultures diluted to ca. 10^6 cfu/mL in Mueller-Hinton media and 100 μL were inoculated into each well of a U-bottom 96-well plate (BD Biosciences, BD351177) containing 100 μL of compound solution. Plates were incubated statically at 37° C. for 72 hours upon which time wells were evaluated visually for bacterial growth. The MIC was determined as the lowest concentration of compound resulting in no bacterial growth visible to the naked eye, based on the majority of three independent experiments. Positive and negative DMSO/aqueous solution and media controls were conducted for each trial. See Peng et al., 2011, Chem. Comm. 47:4896-4898.
as §2, with “trial.” for “trial. See Peng et al., 2011, Chem. Comm. 47:4896-4898.”

[3] = system: Enterococcus faecalis (OG1RF); test: Minimum inhibitory concentration (MIC); format: cell-based; conditions: for MIC v EF: Table 1
Method: as §1, §2
as §2, with “trial.” for “trial. See Peng et al., 2011, Chem. Comm. 47:4896-4898.”

[4] = system: Escherichia coli (MC4100); test: Minimum inhibitory concentration (MIC); format: cell-based; conditions: for MIC v EC: Table 1
Method: as §1, §2
as §2, with “trial.” for “trial. See Peng et al., 2011, Chem. Comm. 47:4896-4898.”

[5] = system: Enterococcus faecalis biofilms; test: Minimum biofilm eradication concentration (MBEC), regrowth assay; format: cell-based; conditions: Table 1
Excerpt: (§3) A regrowth assay was used to establish the MBEC of a compound to evaluate the antibiofilm activity. See also H. Ceri, M. Olson, D. Morck, D. Storey, R. Read, A. Buret, B. Olson, Methods Enzymol. 2001, 337, 377, which is incorporated by reference herein in its entirety.

[6] = system: Staphylococcus aureus (SA; MSSA SH1000); test: Minimum inhibitory concentration (MIC); format: cell-based
Method: as §1, §2
as §2, with “trial.” for “trial. See Peng et al., 2011, Chem. Comm. 47:4896-4898.”

[7] = system: Staphylococcus aureus (MSSA) biofilms; test: Minimum biofilm eradication concentration (MBEC), regrowth assay; format: cell-based; conditions: Table 1
Method: as §3
(§4) To each well of a flat-bottomed 96-well plate (Corning 3370), 8 μL of overnight bacterial culture was brought to a volume of 200 μL with fresh media (BHI for MSSA and MRSA). Plates were incubated statically for 24 hours at 37° C. to establish biofilms. After 24 hours, the wells were carefully emptied by inverting the plate and gently shaking. A pre-mixed solution of media and compound stock solution was added to each well and plates were incubated at 37° C. 16 hours after pre-established biofilms were treated with compound, the media from each well was removed, biofilms were washed three times with 200 μL PBS to remove planktonic cells, and biofilms were incubated overnight at 37° C. in 200 μL of fresh media to allow any viable cells to continue growing. The wells were then vigorously pipetted to resuspend the biofilm cells and the OD at 595 nm was measured using a plate reader (POLARstar Omega, BMG Labtech). Biofilms reaching a final OD of less than 0.1 were considered eradicated and the lowest concentration of antibiotic corresponded to the MBEC. Four replicates were completed for each concentration of compound as well as positive and negative controls.

[8] = system: two MRSA strains-USA300-0114 and ATCC33591; test: MIC against MRSA strains compared to MSSA; format: cell-based, Staphylococcus aureus; conditions: natural product-derived QACs; for susceptibility to QAC/MRSA resistance: MSSA vs MRSA, in words
Method: as §2
MIC values against Gram-positive Staphylococcus aureus (methicillin-susceptible Staphyloccocus aureus (MSSA) and two MRSA strains-USA300-0114 and ATCC33591) and Enterococcus faecalis and Gram-negative Escherichia coli and P. aeruginosa were determined according to standard, and results appear in Table 4.

[9] = system: six bacteria (SA, HA-MRSA, CA-MRSA, EF, EC, PA); test: MIC against the panel of bacteria tested; format: cell-based; conditions: quinine- and nicotine-derived QACs; in words
Method: as §1
The complete set of MIC values against six bacteria [Staphylococcus aureus (SA), hospital-acquired methicillin-resistant SA (HA-MRSA), community-acquired methicillin-resistant SA (CA-MRSA), Enterococcus faecalis (EF), Escherichia coli (EC), and Pseudomonas aeruginosa (PA)] is presented in Table 3, wherein multiQACs are grouped with their monoQAC counterparts. The dye-based QACs with greatest inhibition of the complete range of Gram-positive and Gram-negative bacteria featured bis- or tris-quaternization, with the optimal alkyl total ranging from 17-24 carbons. For example, comparison of two biscationic series -LMG-n,1 and LMG-n,n—evaluates the effect of total alkyl chain length in retention of efficacy against the more challenging CA-MRSA and the Gram-negative strains EC and PA.
as §2

[10] = system: CA-MRSA strain; test: Reactivation assay (sub-MIC co-dosing); format: cell-based, Staphylococcus aureus; conditions: sub-MIC concentrations of TET-14,0,0, varying concentrations of triscationic variant
Excerpt: It was hypothesized that by using a reactivation assay (essentially the inverse of a potentiation assay), the role QacR plays in monoQAC resistance could be better understood. […] Other possible hypotheses include that QacR may be activated by our monoQACs but that QacA cannot efflux the trisQACs or that the resistance mechanism implicated for TET-14,0,0 may be orthogonal to the Qac system.

[11] = system: methicillin-resistant Staphyloccocus aureus (MRSA); conditions: at 350 μm, cited from earlier work
[12] = system: community-acquired methicillin-resistant Staphylococcus aureus CA-MRSA (USA300-0114); test: Minimum inhibitory concentration (MIC); format: cell-based
Method: as §1, §2
as §2, with “trial.” for “trial. See Peng et al., 2011, Chem. Comm. 47:4896-4898.”

[13] = system: red blood cells; format: cell-based, sheep
Method: To date, synthesized compounds have been evaluated against planktonic bacteria (E. coli, S. aureus, P. aeruginosa, E. facaelis) and bacterial biofilms (E. facaelis, S. aureus, MRSA); new compounds are similarly assessed. All compounds are also evaluated via a hemolysis assay to assess their ability to lyse red blood cells (RBC) (Nagamune et al., 2000, Toxicology in Vitro 14:139-147). The assay is conducted following a known protocol to determine the concentration of compound that causes 20% of RBCs to be lysed. […] All compounds are benchmarked against three commercial antiseptics—benzalkonium chloride, DDAC, and CHX (FIG. 1).
Hemolysis assays were performed according to a known method (Peng et al., 2011, Chem. Comm. 47:4896-4898). Defibrinated sheep blood was purchased from Hemostat Labs (DSB030). Compounds representative of each class were serially diluted in sterile PBS from stock solutions and incubated with resuspended blood cells. The OD of the final suspensions were measured directly using plate reader. TritonX (1% by volume) served as a positive control (100% lysis marker) and sterile PBS served as a negative control (0% lysis marker).

[14] = system: hospital-acquired methicillin-resistant Staphylococcus aureus HA-MRSA (ATCC 33591); test: Minimum inhibitory concentration (MIC); format: cell-based; conditions: Table 6
Method: as §1, §2
as §2, with “trial.” for “trial. See Peng et al., 2011, Chem. Comm. 47:4896-4898.”

[15] = system: MRSA biofilms (S. aureus USA300-0114); test: Minimum biofilm eradication concentration (MBEC), regrowth assay; format: cell-based, Staphylococcus aureus; conditions: Table 2; pre-formed MRSA biofilms
Method: as §3, §4

COc1ccc2cc3[n+](cc2c1OC)CCc1cc2c(cc1-3)OCO2 [Berberine, berberine]
activity against P. aeruginosa ([1]; in words, literature): micromolar activity

CCCCCCCCCCC[n+]1ccc(-c2cc[n+](CCCCCCCCCCC)cc2)cc1 [PQ-11,11]
MIC v PA [2]: 4 µM | MIC v EF [3]: 1 µM | MIC v EC [4]: 1 µM | MBEC v EF [5]: 50 µM | MIC v SA ([6]; Table 1): 1 µM | MBEC v SA [7]: 50 µM

C=CC1C[N+]2(CCCCCCCCCCCCCCCC)CCC1C[C@H]2[C@@H](O)c1cc[n+](C)c2ccc(OC)cc12.[Br-].[I-] (stereo partly shown) [Q-16,1]
susceptibility to QAC/MRSA resistance [8]: unaffected by QAC resistance | antimicrobial activity [9]: single-digit micromolar activity

C=CC1C[N+]2(CCCCCCCCCCCCCCCCCC)CCC1C[C@H]2[C@@H](O)c1ccnc2ccc(OC)cc12.[Br-] (stereo partly shown) [Q-18,0]
increase in MIC of MRSA as compared to MSSA [8]: 32 fold

C=CC1C[N+]2(CCCCCCCCCCCCCCCCCC)CCC1C[C@H]2[C@@H](O)c1cc[n+](C)c2ccc(OC)cc12.[Br-].[I-] (stereo partly shown) [Q-18,1]
susceptibility to QAC/MRSA resistance [8]: unaffected by QAC resistance | antimicrobial activity [9]: single-digit micromolar activity

CCCCCCCCCCCCCC[N+](CC)(CC)c1ccc(N(c2ccc([N+](C)(CC)CC)cc2)c2ccc([N+](C)(CC)CC)cc2)cc1 [TET-14,1,1]
modification of MIC on co-dosing with sub-MIC TET-14,0,0 [10]: did not result in any significant modification

COc1cc2c(cc1O)[C@@H](Cc1ccc(O)cc1)[N+](C)(C)CC2 [magnocuraine, magnocurarine]
effectiveness against MRSA ([11]; in words): no effectiveness

Latifolian A
inhibition of MRSA [11]: 55% | MIC against Pseudomonas aeruginosa ([1]; Martin et al., 2011): 35

benzalkonium chloride [reference compound]
MIC v MRSA ([12]; Table 2, qac-bearing MRSA strain USA300-0114): 32 µM | MIC CA-MRSA ([12]; Table 6): 8 µM | Lysis20 [13]: 63 µM | TI MRSA [13]: 2 | TI SA [13]: 8 | MIC v PA [2]: 63 µM | MIC PA ([2]; Table 6): 63 µM | MIC v EF [3]: 8 µM | MIC EF ([3]; Table 6): 8 µM | MIC v EC [4]: 32 µM | MIC EC ([4]; Table 6): 32 µM | MIC HA-MRSA [14]: 32 µM | MBEC v EF [5]: 200 µM | MIC v SA ([6]; Table 1): 8 µM | MIC v SA ([6]; Table 2, non-resistant S. aureus strain (SH1000)): 8 µM | MIC SA ([6]; Table 6): 8 µM | MBEC v MRSA [15]: >200 µM | MBEC v SA [7]: 200 µM
